The target in the test is T1, ABHD6 (Mus musculus, UniProt Q8R2Y0).
T1 construct: full-length mouse ABHD6, pcDNA3.1 myc-His, overexpressed in HEK293T (membrane fraction)
T1 sequence (Q8R2Y0 1-336): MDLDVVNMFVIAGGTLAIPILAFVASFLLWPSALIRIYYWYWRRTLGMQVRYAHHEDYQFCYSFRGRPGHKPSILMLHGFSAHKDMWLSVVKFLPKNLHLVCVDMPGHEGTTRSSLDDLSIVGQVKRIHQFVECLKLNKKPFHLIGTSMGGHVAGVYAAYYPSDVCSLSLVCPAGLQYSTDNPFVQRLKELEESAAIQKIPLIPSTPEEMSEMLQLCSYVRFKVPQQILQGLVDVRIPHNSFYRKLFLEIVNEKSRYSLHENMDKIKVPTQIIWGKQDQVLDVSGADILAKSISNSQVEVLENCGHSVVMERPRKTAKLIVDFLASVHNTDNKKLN
Kind of test: competitive gel-based ABPP dose response with FP-rhodamine; lyso-PS lipase LC-MS assay; in vivo ABPP. It counts as biochemical.

pIC50: −log10 of the molar value.

For `O=C(c1cccc(-c2ccc(-c3cn(C(=O)N4CCCCC4c4ccccc4)nn3)cc2)c1)N1CCCCC1` (stereo not shown) [KT185], the pIC50 – broadly, the negative decadic logarithm of the IC50, by convention in mol/L – was above 8.00.
